Source: patent publication US10980809B2, “Urea-substituted aromatic ring-linked dioxane-quinazoline and -linked dioxane-quinoline compounds, preparation method therefor and use thereof” (BEIJING SCITECH-MQ PHARMACEUTICALS LIMITED, priority 2017, dated 2021)

Columns and labels:
VEGFR-2 kinase = VEGFR-2 kinase (Homo sapiens (Human), UniProt P35968); assay: Test of small molecule compounds for inhibiting the activity of VEGFR-2 kinase; format: biochemical; conditions: class symbols A-D
Method in brief: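 Kinase pre-incubated with diluted compounds for 30 min at room temperature, then substrate/ATP mix added and reaction run 60 min at room temperature in the dark […]. Signal read on a plate reader.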

[1] = test system: MHCC97H liver cancer cell line; assay: Cell survival assay (CCK-8), MHCC97H; format: cell-based; conditions: Homo sapiens, MHCC97H cells, 72 h incubation
Description: (§1) Biological Example 3. Cell Survival Assay for Small Molecule Compounds
(§2) The specific procedure was carried out as follows:
(§3) 1. 600 μL of trypsin was added to a T75 cell culture flask, it was digested in a 37° C. incubator for about 1 min, then 5 mL of DMEM complete medium was added, which was blowed evenly, transferred to a 15 mL centrifuge tube, and centrifuged at 1000 rpm for 4 min;
(§4) 2. The supernatant was discarded, 5 mL of DMEM complete medium was added, which was blowed evenly, and then mixed with 10 μL of cell suspension and 10 μL of 0.4% trypan blue, and reading was recorded using a cell counter;
(§5) 3. Cells of […] different cell lines (MHCC97H, HuH7, HepG2, A549, 8505C) were seeded in 96-well plates at a cell density of 6000 cells/80 μL of complete medium/well, and cultured overnight. Only sterile water was added in the outer 36 wells of the 96-well plates, and the remaining inside 60 wells were used for cell experiments and controls;
(§6) 4. Dilution of compounds: a total of 10 concentrations of the compounds were obtained using a 3-fold dilution from the starting concentration of 10 mM.
(§7) 5. 20 μL of different compounds in different concentrations were added to each corresponding well, and the remaining wells were added with 20 μL of complete medium, the plate was shaked, and the concentration of DMSO in each well is 0.25%.
(§8) 6. After incubation for 72 h, 10 μL of CCK-8 reagent was added to each well, and cultured at 37° C. for 1-2 h; the OD value was read at 450 nm.
(§9) 7. Cell Viability (%)=[(As−Ab)/(Ac−Ab)]*100% • As: Experimental well (medium containing cells, CCK-8, compound) • Ac: Control well (medium containing cells, CCK-8) • Ab: Blank well (medium without cell and compound, CCK-8)
(§10) Table (3) lists the determination results of the activity of representative compounds of the present disclosure against various cancer cells, wherein MHCC97H, HuH7, and HepG2 are liver cancer cell lines, A549 is a lung cancer cell line, and 8505C is a thyroid cancer cell line.

[2] = test system: HuH7 liver cancer cell line; assay: Cell survival assay (CCK-8), HuH7; format: cell-based; conditions: Homo sapiens, Huh-7, HuH7 cells, 72 h incubation
Description: as §1, §2, §3, §4, §5, §6, §7, §8, §9, §10

[3] = test system: HepG2 liver cancer cell line; assay: Cell survival assay (CCK-8), HepG2; format: cell-based; conditions: Homo sapiens, HepG2 cells, 72 h incubation
Description: as §1, §2, §3, §4, §5, §6, §7, §8, §9, §10

[4] = test system: A549 lung cancer cell line; assay: Cell survival assay (CCK-8), A549; format: cell-based; conditions: Homo sapiens, A549 cells, 72 h incubation
Description: as §1, §2, §3, §4, §5, §6, §7, §8, §9, §10

[5] = test system: 8505C thyroid cancer cell line; assay: Cell survival assay (CCK-8), 8505C; format: cell-based; conditions: Homo sapiens, 8505C cells, 72 h incubation
Description: as §1, §2, §3, §4, §5, §6, §7, §8, §9, §10

C-RAF = C-RAF (Homo sapiens (Human), UniProt P04049); assay: Test of small molecule compounds for inhibiting the activity of C-RAF kinase (ADP-Glo)
C-RAF, sequence (P04049 whole entry): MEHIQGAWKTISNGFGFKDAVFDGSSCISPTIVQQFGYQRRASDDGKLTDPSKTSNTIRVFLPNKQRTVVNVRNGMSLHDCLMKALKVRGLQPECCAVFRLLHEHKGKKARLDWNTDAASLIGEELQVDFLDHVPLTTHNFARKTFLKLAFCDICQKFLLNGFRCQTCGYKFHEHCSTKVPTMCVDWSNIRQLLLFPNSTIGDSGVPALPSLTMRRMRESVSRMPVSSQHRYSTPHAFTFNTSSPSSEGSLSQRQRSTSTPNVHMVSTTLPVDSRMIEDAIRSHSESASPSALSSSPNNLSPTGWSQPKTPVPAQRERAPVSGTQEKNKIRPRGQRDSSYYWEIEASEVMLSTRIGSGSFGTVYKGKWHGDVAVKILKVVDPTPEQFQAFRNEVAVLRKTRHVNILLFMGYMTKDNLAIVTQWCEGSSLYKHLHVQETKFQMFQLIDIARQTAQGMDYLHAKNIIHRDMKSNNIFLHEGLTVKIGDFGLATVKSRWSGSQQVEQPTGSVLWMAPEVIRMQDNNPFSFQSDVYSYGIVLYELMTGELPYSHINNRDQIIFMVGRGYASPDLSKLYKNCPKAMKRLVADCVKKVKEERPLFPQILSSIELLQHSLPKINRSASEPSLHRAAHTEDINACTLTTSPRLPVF
Description: (§11) Test of Small Molecule Compounds for Inhibiting the Activity of C-RAF and B-RAF Kinases
The test was carried out as follows:
(§12) 1. Preparation of test compounds: according to the molecular weight of the compounds, an appropriate volume of DMSO was directly added to dissolve the test compounds. For storing the compound, the concentration of DMSO is 100%, and the final concentration of DMSO in the experimental system is 1%.
(§13) Enzyme: B-RAF: 0.1 ng/l (the final concentration in the reaction system); C-RAF: 0.1 ng/μl (the final concentration in the reaction system)
(§14) HPE: the reaction without enzyme (1% DMSO)
(§15) ZPE: the reaction with enzyme but without compound (1% DMSO)
(§16) a) 1 ul of 10-fold diluted compound or 10% DMSO was added to a 384-well assay plate,
(§17) b) 4 ul enzyme solution or assay buffer was added to the wells of the assay plate,
(§18) c) the plate was centrifuged at 1000 rpm for 1 minute to homogeneous,
(§19) d) 5 ul of ATP-substrate mixture was added to the wells of the assay plate,
(§20) e) the plate was shaked for mixing for 2 minutes,
(§21) f) the plate was incubated at 30° C. for 1 hour,
(§22) g) 10 ul of ADP-Glo reagent was added to the wells of the assay plate, and the plate was incubated for 40 minutes at 27° C.,
(§23) h) 20 ul of kinase assay solution was added to the wells of the plate, and the plate was incubated for 30 minutes at 27° C.,
(§24) i) the chemiluminescent signal was read with Envision.
(§25) The IC50 values of the positive control compound and the test compounds were calculated using the Prism software according to the variable slope of the curve.

B-RAF = B-RAF (Homo sapiens (Human), UniProt P15056); assay: Test of small molecule compounds for inhibiting the activity of B-RAF kinase (ADP-Glo)
B-RAF, sequence (P15056 whole entry): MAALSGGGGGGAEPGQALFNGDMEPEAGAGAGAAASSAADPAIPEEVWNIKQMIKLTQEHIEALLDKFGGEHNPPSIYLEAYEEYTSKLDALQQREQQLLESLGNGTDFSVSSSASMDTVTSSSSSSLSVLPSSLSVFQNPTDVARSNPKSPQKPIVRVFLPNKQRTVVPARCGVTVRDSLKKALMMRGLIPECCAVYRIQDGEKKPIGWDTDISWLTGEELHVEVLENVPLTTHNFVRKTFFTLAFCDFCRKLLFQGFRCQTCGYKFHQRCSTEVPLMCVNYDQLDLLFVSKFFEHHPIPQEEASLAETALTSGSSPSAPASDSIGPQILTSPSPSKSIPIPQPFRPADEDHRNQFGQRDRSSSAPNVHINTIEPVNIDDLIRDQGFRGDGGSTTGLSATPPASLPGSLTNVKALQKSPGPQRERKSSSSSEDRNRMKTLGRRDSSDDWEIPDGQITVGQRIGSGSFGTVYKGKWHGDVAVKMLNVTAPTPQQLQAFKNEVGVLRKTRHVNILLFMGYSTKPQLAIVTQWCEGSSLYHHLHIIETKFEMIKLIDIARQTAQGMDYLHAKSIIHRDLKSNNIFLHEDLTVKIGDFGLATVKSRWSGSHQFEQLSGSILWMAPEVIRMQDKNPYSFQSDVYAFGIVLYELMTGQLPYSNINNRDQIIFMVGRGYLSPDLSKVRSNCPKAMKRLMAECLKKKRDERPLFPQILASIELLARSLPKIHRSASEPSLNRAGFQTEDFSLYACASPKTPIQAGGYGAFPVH
Description: as §11
The test was carried out as follows:
as §12, §13, §14, §15, §16, §17, §18, §19, §20, §21, §22, §23, §24, §25

VEGFR-2 kinase, sequence (P35968 20-1356): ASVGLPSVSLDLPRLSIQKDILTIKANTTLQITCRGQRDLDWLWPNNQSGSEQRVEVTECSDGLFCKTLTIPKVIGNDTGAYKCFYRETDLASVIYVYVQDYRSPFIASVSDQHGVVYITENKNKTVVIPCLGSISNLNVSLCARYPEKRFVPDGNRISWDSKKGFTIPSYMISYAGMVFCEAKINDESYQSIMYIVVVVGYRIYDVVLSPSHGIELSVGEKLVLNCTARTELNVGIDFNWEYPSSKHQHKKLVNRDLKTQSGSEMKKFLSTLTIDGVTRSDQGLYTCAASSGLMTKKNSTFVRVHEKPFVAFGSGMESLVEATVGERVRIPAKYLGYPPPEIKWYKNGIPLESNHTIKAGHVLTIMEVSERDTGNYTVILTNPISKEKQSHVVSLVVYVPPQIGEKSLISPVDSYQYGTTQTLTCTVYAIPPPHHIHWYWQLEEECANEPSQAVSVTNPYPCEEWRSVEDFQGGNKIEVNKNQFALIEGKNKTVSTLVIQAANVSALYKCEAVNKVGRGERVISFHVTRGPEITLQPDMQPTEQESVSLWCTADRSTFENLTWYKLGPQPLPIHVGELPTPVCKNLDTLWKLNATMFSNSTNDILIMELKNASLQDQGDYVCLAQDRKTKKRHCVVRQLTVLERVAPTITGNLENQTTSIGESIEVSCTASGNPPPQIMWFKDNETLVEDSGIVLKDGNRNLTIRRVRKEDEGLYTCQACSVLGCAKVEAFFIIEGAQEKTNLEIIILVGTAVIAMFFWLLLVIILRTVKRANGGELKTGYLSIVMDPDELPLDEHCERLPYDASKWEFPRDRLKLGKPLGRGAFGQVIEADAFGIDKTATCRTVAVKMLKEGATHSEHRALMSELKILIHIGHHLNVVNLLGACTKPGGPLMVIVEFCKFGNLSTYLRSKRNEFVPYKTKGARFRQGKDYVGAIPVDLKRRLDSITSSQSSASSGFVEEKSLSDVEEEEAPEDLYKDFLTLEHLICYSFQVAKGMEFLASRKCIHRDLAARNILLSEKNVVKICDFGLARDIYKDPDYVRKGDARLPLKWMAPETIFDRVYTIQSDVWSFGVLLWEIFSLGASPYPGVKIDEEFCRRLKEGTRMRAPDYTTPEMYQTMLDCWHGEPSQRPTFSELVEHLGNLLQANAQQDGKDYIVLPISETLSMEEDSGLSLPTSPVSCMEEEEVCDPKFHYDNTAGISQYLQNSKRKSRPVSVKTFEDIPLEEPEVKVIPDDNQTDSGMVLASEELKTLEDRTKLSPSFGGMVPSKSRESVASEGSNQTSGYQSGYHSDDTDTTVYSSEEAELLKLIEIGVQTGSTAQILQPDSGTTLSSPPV

| Compound | IC50 (VEGFR-2 kinase) [nM] | IC50 [1] [nM] | IC50 [2] [nM] | IC50 [3] [nM] | IC50 [4] [nM] | IC50 [5] [nM] | IC50 (C-RAF) [nM] | IC50 (B-RAF) [nM] |
| --- | --- | --- | --- | --- | --- | --- | --- | --- |
| COCCOc1cc2ncnc(Oc3ccc(NC(=O)Nc4ccc(Cl)c(C(F)(F)F)c4)c(F)c3)c2c2c1OCCO2 [Example 48, 1-(4-chloro-3-(trifluoromethyl)phenyl)-3-(2-fluoro-4-((5-(2-methoxyethoxy)-2,3-dihydro-[1,4]dioxino[2,3-f]quinazolin-10-yl)oxy)phenyl)urea] | < 50 | 1230 | 1270 | 926 | 590 | 21.9 | 200 to 500 | < 200 |
| COCCOc1cc2ncnc(Oc3ccc(NC(=O)Nc4cc(C(F)(F)F)ccc4F)cc3)c2c2c1OCCO2 [Example 47, 1-(2-fluoro-5-(trifluoromethyl)phenyl)-3-(4-((5-(2-methoxyethoxy)-2,3-dihydro-[1,4]dioxino[2,3-f]quinazolin-10-yl)oxy)phenyl)urea] | […] | 714 | 585 | 123 | 194 | 5.35 | […] | […] |
| COCCOc1cc2ncnc(Oc3ccc(NC(=O)Nc4ccc(Cl)c(C(F)(F)F)c4)cc3)c2c2c1OCCO2 [Example 46, 1-(4-chloro-3-(trifluoromethyl)phenyl)-3-(4-((5-(2-methoxyethoxy)-2,3-dihydro-[1,4]dioxino[2,3-f]quinazolin-10-yl)oxy)phenyl)urea] | < 50 | > 2500 | 1260 | 2360 | 428 | 8.57 | 500 to 1000 | 500 to 1000 |
| COc1cc2ncnc(Oc3ccc(NC(=O)Nc4ccc(Cl)c(C(F)(F)F)c4)cc3)c2c2c1OCCO2 [Example 18, 1-(4-chloro-3-(trifluoromethyl)phenyl)-3-(4-((5-methoxy-2,3-dihydro-[1,4]dioxino[2,3-f]quinazolin-10-yl)oxy)phenyl)urea] | < 50 | > 2500 | 1330 | 1740 | 1040 | 23.2 | 200 to 500 | 200 to 500 |
| COc1cc2ncnc(Oc3ccc(NC(=O)Nc4cc(C(F)(F)F)ccc4F)cc3)c2c2c1OCCO2 [Example 20, 1-(2-fluoro-5-(trifluoromethyl)phenyl)-3-(4-((5-methoxy-2,3-dihydro-[1,4]dioxino[2,3-f]quinazolin-10-yl)oxy)phenyl)urea] | […] | 1720 | 856 | 302 | 1120 | 20.3 | […] | […] |
